# Assay results from patent publication US3953442A (priority 1972, dated 1976).
# Where two headings read alike, the source gives them in different places.
# Tests used:
# [1] = system: visceral pain; test: Analgesic effect, acetic acid induced visceral pain in the mouse (Koster and Anderson test); assay type: in vivo; conditions: oral, 30 min before acetic acid injection, 50% effective dose
# Procedure: The compounds (I) are analgesic agents.
# A visceral pain is induced in the mouse by intraperitonal injection of a dilute solution of acetic acid (Koster and Anderson test).
# The animals, which are starved on the day before the experiment and separated into random batches of 5, are treated with the products under test thirty minutes before injection of the irritant. Treatment was always performed orally.
# After the acetic acid solution is injected the animals show symptoms of pain (stretching of the abdomen with extension of the back feet) which are counted during two spells of 5 minutes for each lot: from the fifth to the tenth minute and from the fifteenth to the twentieth minute respectively after the acid is injected
# The ED50 value is expressed in mg kg bodyweight
# [2] = system: central nervous system; test: animal or person; assay type: in vivo; conditions: Mus musculus, read-out: Spontaneous pattern of activity (table head: LD50 in mg/kg)
# [3] = Acute toxicity (LD50) in the mouse; conditions: in vivo
# Procedure: The compounds of the present invention are not very toxic. By way of example, with the mouse, the dose which causes the death of 50 % of the animals or (LD50) is about 400 mg/kg bodyweight by oral and sub-cutaneous administration in the case of 5862.
SMILES,ED50 [1] [mg/kg],ED50 ([2]; ip) [mg/kg],further results
CC(Cc1cn(-c2ccccc2)c2ccccc12)N1CCCCC1 (centres unmarked) [compound 5478],12.5,12.5,–
CNC(C)Cc1cn(-c2ccccc2)c2ccccc12 (centres unmarked) [compound 5479],–,2.5,ED50 ([2]; po): 25 mg/kg
CC(Cc1cn(-c2ccccc2)c2ccccc12)N1CCCC1 (centres unmarked) [compound 5480],–,2.5,ED50 ([2]; po): 12.5 mg/kg
CC(Cc1cn(-c2ccccc2)c2ccccc12)N1CCOCC1 (centres unmarked) [compound 5481],12.5,2.5,–
CC(Cc1cn(-c2ccccc2)c2ccccc12)N(C)C (centres unmarked) [compound 5483],12.5,5,ED50 ([2]; po): 25 mg/kg
CNC(C)Cc1cn(-c2ccc(OC)cc2)c2ccccc12 (centres unmarked) [compound 5772],–,25,–
COc1ccc(-n2cc(CC(C)N(C)C)c3ccccc32)cc1 (centres unmarked) [compound 5773],12.5,1.25,ED50 ([2]; po): 40 mg/kg
"COc1ccc(-n2cc(CC(C)NC(C)C)c3ccccc32)cc1 (centres unmarked) [compound 5774, 1-(4-methoxyphenyl)-3-(2-isopropylaminopropyl)indole]",–,12.5,–
COc1ccc(-n2cc(CC(C)N3CCCC3)c3ccccc32)cc1 (centres unmarked) [compound 5775],25,1,–
COc1ccc(-n2cc(CC(C)N3CCCCC3)c3ccccc32)cc1 (centres unmarked) [compound 5776],–,5,ED50 ([2]; po): 35 mg/kg
COc1ccc(-n2cc(CC(C)N3CCOCC3)c3ccccc32)cc1 (centres unmarked) [compound 5777],–,25,–
CNC(C)Cc1cn(-c2ccc(Cl)cc2)c2ccccc12 (centres unmarked) [compound 5859],–,5,–
CC(Cc1cn(-c2ccc(Cl)cc2)c2ccccc12)N(C)C (centres unmarked) [compound 5860],25,5,–
CC(Cc1cn(-c2ccc(Cl)cc2)c2ccccc12)N1CCCC1 (centres unmarked) [compound 5861],25,–,–
"CC(Cc1cn(-c2ccc(F)cc2)c2ccccc12)N1CCCC1.Cl (centres unmarked) [compound 5862, 3-(2-pyrrolidinopropyl)-1-(4-fluorophenyl)indole hydrochloride]",3.12,0.4,"LD50 ([3]; oral): ~400 mg/kg; LD50 ([3]; sc, sub-cutaneous): ~400 mg/kg"
CNC(C)Cc1cn(-c2ccc(F)cc2)c2ccccc12 (centres unmarked) [compound 5863],6.25,2,–
CC(Cc1cn(-c2ccc(F)cc2)c2ccccc12)N(C)C (centres unmarked) [compound 5864],3.12,2,–
CNC(C)Cc1cn(-c2ccc(N)cc2)c2ccccc12 (centres unmarked) [compound 5935],–,2.5,–
CC(Cc1cn(-c2ccccc2Cl)c2ccccc12)N1CCCC1 (centres unmarked) [compound 5984],–,0.25,ED50 ([2]; po): 10 mg/kg
CC(Cc1cn(-c2ccccc2Cl)c2ccccc12)N(C)C (centres unmarked) [compound 5987],12.5,6,ED50 ([2]; po): 6.25 mg/kg

SMILES,ED50 [1] [mg/kg],ED50 ([2]; ip) [mg/kg],further results
CC(Cc1cn(-c2ccccc2F)c2ccccc12)N1CCCC1 (centres unmarked) [compound 5988],12.5,5,–
CNC(C)Cc1cn(-c2ccccc2F)c2ccccc12 (centres unmarked) [compound 6050],–,12.5,–
CNC(C)Cc1cn(-c2ccccc2Cl)c2ccccc12 (centres unmarked) [compound 6051],50,5,–
COc1ccc2c(c1)c(CC(C)N1CCCC1)cn2-c1ccccc1 (centres unmarked) [compound 6066],–,10,–
CC(Cc1cn(-c2cccnc2)c2ccccc12)N(C)C (centres unmarked) [compound 6097],–,10,–
CC(Cc1cn(-c2ccccn2)c2ccccc12)N(C)C (centres unmarked) [compound 6099],–,50,–
CC(Cc1cn(-c2ccccn2)c2ccccc12)N1CCCC1 (centres unmarked) [compound 6102],–,12.5,–
CNC(C)Cc1cn(-c2ccccn2)c2ccccc12 (centres unmarked) [compound 6104],–,25,–
"CC(Cc1cn(-c2ccc(F)cc2)c2ccc(Cl)cc12)N1CCCC1 (centres unmarked) [compound 6112, 5-chloro-1-(4-fluorophenyl)-3-(2-pyrrolidinopropyl)indole]",0.75,0.4,"LD50 ([3]; oral): > 800 mg/kg; LD50 ([3]; sc, sub-cutaneous): 400 to 800 mg/kg"
CC(Cc1cn(-c2ccccc2)c2ccc(F)cc12)N1CCCC1 (centres unmarked) [compound 6116],–,0.25,"LD50 ([3]; sc, sub-cutaneous): > 1000 mg/kg"
CC(Cc1cn(-c2ccc(F)cc2)c2ccc(F)cc12)N1CCCC1 (centres unmarked) [compound 6250],–,0.8,ED50 ([2]; po): 3.12 mg/kg
CC(Cc1cn(-c2ccc(Cl)cc2)c2ccc(F)cc12)N1CCCC1 (centres unmarked) [compound 6251],12.5,9,ED50 ([2]; po): 25 mg/kg
CC(N)Cc1cn(-c2ccc(F)cc2)c2ccccc12 (centres unmarked) [compound 6254],–,80,–
CC(Cc1cn(-c2ccc(Cl)cc2)c2ccc(F)cc12)N(C)C (centres unmarked) [compound 6264],–,20,–
CC(Cc1cn(-c2ccccc2)c2ccc(F)cc12)N(C)C (centres unmarked) [compound 6265],–,20,–
CC(Cc1cn(-c2ccc(F)cc2)c2ccc(Cl)cc12)N(C)C (centres unmarked) [compound 6268],–,6.25,–
CC(Cc1cn(-c2ccc(F)cc2)c2ccc(F)cc12)N(C)C (centres unmarked) [compound 6269],6.25,6.25,–
COc1ccc2c(c1)c(CC(C)N1CCCC1)cn2-c1ccc(F)cc1 (centres unmarked) [compound 6270],–,3.12,–
COc1ccc2c(c1)c(CC(C)N(C)C)cn2-c1ccccc1 (centres unmarked) [compound 6271],–,12.5,–
